Drawing on patent US20110166121A1 (LG LIFE SCIENCES LTD., priority 2008, published 2011), this text covers Ki for 22 compounds.

This experiment relates to Human platelet aggregation caused by ADP. Put plainly: Inhibition of ADP-induced platelet aggregation (Mimic-human PRP). Format: cell-based. The settings on record: 20 μM ADP, human platelet concentrate diluted with PPP, absorption at 595 nm. The method, then: Platelet Preparation for Aggregation Studies
Human platelet aggregation reaction test is a functional experiment method to verify whether a test compound is an agonist or an antagonist to ADP receptor. […] The platelet product isolated from whole blood was purchased from Chung-Nam blood center (Dae-joen, South Korea). The platelet was isolated from 400 mL of whole blood containing 56 mL of CPDA-1 anticoagulant. To isolate the platelet product, 400 mL of whole blood was centrifuged at 260×g for 5 minutes, and then obtained PRP (platelet rich plasma) was secondary centrifuged at 370×g for 6 minutes. Platelet pellet (10^9/mL) was suspended with 45 mL of plasma and then agitated over 1 hour at 22° C. blood reservoir to stabilize it. The stabilized platelet product was used in the experiment within 24 hours. PCs (Platelet Concentrates) were gently transferred to a new 50 ml-falcon tube. The number of platelet was counted by using animal blood counter (ABC Vet, ABX diagnostics, France). The volume of 30 mL of PCs collected from same donor was centrifuged at 1500 g for 10 min at room temperature to prepare platelet-poor plasma (PPP). The platelet count was adjusted to platelet number of 3˜4×10^8/mL by diluting with PPP.
Evaluation on Inhibitory Effect of ADP-Induced Aggregation
Inhibition of ADP-induced aggregation was determined in 96-well flat-bottom plates (Costar, USA) at room temperature. The diluted platelet was aliquoted into each well of 96 well plate in the volume of 188 μl. […] The platelet including test compounds was immediately mixed on a shaker at 1050 rpm for 1 min and incubated at room temperature for 20 min. Then, 10 μL volume of 400 μM ADP was added: the final concentration of 20 μM ADP in the total reaction volume of 0.2 mL/well. After shaking of the plate at room temperature for 3 min, the absorption of the samples was determined at 595 nm using a microtiter plate reader (Softmax, Molecular Devices).
A dose-dependent curve on serial dilutions of ADP was accomplished by adding vehicle (DMSO) instead of antagonists in order to calculate EC50 of ADP. Inhibition of aggregation was calculated from the increase of absorption at 595 nm at 3 min of the reaction incubation, compared to results of absorption between the 0 and 20 μM ADP control without antagonists. Sigmoidal dose-response curves and Ki were derived by non-linear regression analysis using the Prism software (GraphPad, San Diego Calif.).

`CCCc1cc2c(N3CCn4c(nnc4C(F)(F)F)C3)nc(N3CC[C@H](C(=O)N(C)C)C3)nc2s1` [Example 1-88, (S)-1-[6-Propyl-4-(3-trifluoromethyl-5,6-dihydro-8H-[1,2,4]triazolo[4,3-a]pyrazin-7-yl)-thieno[2,3-d]pyrimidin-2-yl]-pyrrolidine-3-carboxylic acid dimethylamide] returned a Ki of 0.016 µM.

In turn, `CCCc1cc2c(N3CCn4c(nnc4C(F)(F)F)C3)nc(N3CCCC(C(N)=O)C3)nc2s1` (stereo not shown) [Example 1-92, 1-[6-Propyl-4-(3-trifluoromethyl-5,6-dihydro-8H-[1,2,4]triazolo[4,3-a]pyrazin-7-yl)-thieno[2,3-d]pyrimidin-2-yl]-piperidine-3-carboxylic acid amide] returned a Ki of 0.03 µM.

Consider `CCCc1cc2c(N3CCn4c(nnc4C(F)(F)F)C3)nc(N3CCCC(C(=O)NC)C3)nc2s1` (stereo not shown) [Example 1-93, 1-[6-Propyl-4-(3-trifluoromethyl-5,6-dihydro-8H-[1,2,4]triazolo[4,3-a]pyrazin-7-yl)-thieno[2,3-d]pyrimidin-2-yl]-piperidine-3-carboxylic acid methylamide], for which the affinity, expressed as Ki, was 0.204 µM. Then `CCCc1cc2c(N3CCn4c(nnc4C(F)(F)F)C3)nc(N3CCCC(C(=O)N(C)C)C3)nc2s1` (stereo not shown) [Example 1-94, 1-[6-Propyl-4-(3-trifluoromethyl-5,6-dihydro-8H-[1,2,4]triazolo[4,3-a]pyrazin-7-yl)-thieno[2,3-d]pyrimidin-2-yl]-piperidine-3-carboxylic acid dimethylamide], with 0.029 µM.

`CCCc1cc2c(N3CCn4c(nnc4C(F)(F)F)C3)nc(N3CCCC(C(=O)NO)C3)nc2s1` (stereo not shown) [Example 1-95, 1-[6-Propyl-4-(3-trifluoromethyl-5,6-dihydro-8H-[1,2,4]triazolo[4,3-a]pyrazin-7-yl)-thieno[2,3-d]pyrimidin-2-yl]-piperidine-3-carboxylic acid hydroxyamide] gave a Ki of 0.011 µM. Next, `CCCc1cc2c(N3CCn4c(nnc4C(F)(F)F)C3)nc(N3CC[C@H](NC(=O)CO)C3)nc2s1` [Example 1-100, 2-Hydroxy-N-{(S)-1-[6-propyl-4-(3-trifluoromethyl-5,6-dihydro-8H-[1,2,4]triazolo[4,3-a]pyrazin-7-yl)-thieno[2,3-d]pyrimidin-2-yl]-pyrrolidin-3-yl}-acetamide]: 0.006 µM; `CCCc1cc2c(N3CCn4c(nnc4C(F)(F)F)C3)nc(N3CC[C@H](NC(=O)CN)C3)nc2s1` [Example 1-101, 2-Amino-N-{(S)-1-[6-propyl-4-(3-trifluoromethyl-5,6-dihydro-8H-[1,2,4]triazolo[4,3-a]pyrazin-7-yl)-thieno[2,3-d]pyrimidin-2-yl]-pyrrolidin-3-yl}-acetamide]: 0.0035 µM. Then `CCCc1cc2c(N3CCn4c(nnc4C(F)(F)F)C3)nc(N3CC[C@H](NC(=O)COC)C3)nc2s1` [Example 1-102, 2-Methoxy-N-{(S)-1-[6-propyl-4-(3-trifluoromethyl-5,6-dihydro-8H-[1,2,4]triazolo[4,3-a]pyrazin-7-yl)-thieno[2,3-d]pyrimidin-2-yl]-pyrrolidin-3-yl}-acetamide], with 0.0086 µM; and `CCCc1cc2c(N3CCn4c(nnc4C(F)(F)F)C3)nc(N3CC[C@H](NC(C)=O)C3)nc2s1` [Example 1-105, N-{(S)-1-[6-Propyl-4-(3-trifluoromethyl-5,6-dihydro-8H-[1,2,4]triazolo[4,3-a]pyrazin-7-yl)-thieno[2,3-d]pyrimidin-2-yl]-pyrrolidin-3-yl}-acetamide], with 0.0044 µM. With `CCCc1cc2c(N3CCn4c(nnc4C(F)(F)F)C3)nc(N3CC[C@H](NC(=O)C(F)(F)F)C3)nc2s1` [Example 1-106, 2,2,2-Trifluoro-N-{(S)-1-[6-propyl-4-(3-trifluoromethyl-5,6-dihydro-8H-[1,2,4]triazolo[4,3-a]pyrazin-7-yl)-thieno[2,3-d]pyrimidin-2-yl]-pyrrolidin-3-yl}-acetamide], the Ki was 0.016 µM.

As for `CCCc1cc2c(N3CCn4c(nnc4C(F)(F)F)C3)nc(N3CC[C@H](NC(=O)C(C)(C)O)C3)nc2s1` [Example 1-107, 2-Hydroxy-2-methyl-N-{(S)-1-[6-propyl-4-(3-trifluoromethyl-5,6-dihydro-8H-[1,2,4]triazolo[4,3-a]pyrazin-7-yl)-thieno[2,3-d]pyrimidin-2-yl]-pyrrolidin-3-yl}-propionamide], affinity was put at a Ki of 0.019 µM. Next, `CCCc1cc2c(N3CCn4c(nnc4C(F)(F)F)C3)nc(N3CC[C@H](NC(=O)C4CC4)C3)nc2s1` [Example 1-108, Cyclopropanecarboxylic Acid {(S)-1-[6-propyl-4-(3-trifluoromethyl-5,6-dihydro-8H-[1,2,4]triazolo[4,3-a]pyrazin-7-yl)-thieno[2,3-d]pyrimidin-2-yl]-pyrrolidin-3-yl}-amide]: 0.0093 µM. Then `CCCc1cc2c(N3CCn4c(nnc4C(F)(F)F)C3)nc(N3CC(N)C(O)C3)nc2s1` (stereo not shown) [Example 1-114, 4-Amino-1-[6-propyl-4-(3-trifluoromethyl-5,6-dihydro-8H-[1,2,4]triazolo[4,3-a]pyrazin-7-yl)-thieno[2,3-d]pyrimidin-2-yl]-pyrrolidin-3-ol], with 0.0038 µM. Then `CCCc1cc2c(N3CCn4c(nnc4C(F)(F)F)C3)nc(N(CCO)CC(=O)O)nc2s1` [Example 1-118, {(2-Hydroxy-ethyl)-[6-propyl-4-(3-trifluoromethyl-5,6-dihydro-8H-[1,2,4]triazolo[4,3-a]pyrazin-7-yl)-thieno[2,3-d]pyrimidin-2-yl]-amino}-acetic acid], with 0.034 µM; and `CCCc1cc2c(N3CCn4c(nnc4C(F)(F)F)C3)nc(N3CC[C@H](NC(=O)Cc4csc(N)n4)C3)nc2s1` [Example 1-119, 2-(2-Amino-thiazol-4-yl)-N-{(S)-1-[6-propyl-4-(3-trifluoromethyl-5,6-dihydro-8H-[1,2,4]triazolo[4,3-a]pyrazin-7-yl)-thieno[2,3-d]pyrimidin-2-yl]-pyrrolidin-3-yl}-acetamide], with 0.0072 µM. Regarding `CCCc1cc2c(N3CCn4c(nnc4C(F)(F)F)C3)nc(N3CC[C@H](NC(=O)Cc4ccccn4)C3)nc2s1` [Example 1-121, N-{(S)-1-[6-Propyl-4-(3-trifluoromethyl-5,6-dihydro-8H-[1,2,4]triazolo[4,3-a]pyrazin-7-yl)-thieno[2,3-d]pyrimidin-2-yl]-pyrrolidin-3-yl}-2-pyridin-2-yl-acetamide], affinity was put at a Ki of 0.019 µM. For the compound `CCCc1cc2c(N3CCn4c(nnc4C(F)(F)F)C3)nc(N3CCS(=O)(=O)CC3)nc2s1` [Example 1-124, 7-[2-(1,1-Dioxo-1lambda*6*-thiomorpholin-4-yl)-6-propyl-thieno[2,3-d]pyrimidin-4-yl]-3-trifluoromethyl-5,6,7,8-tetrahydro-[1,2,4]triazolo[4,3-a]pyrazine], affinity was put at a Ki of 0.0039 µM. Then `CCCc1cc2c(N3CCn4c(nnc4C(F)(F)F)C3)nc(N3C=CC4=NCCNC4=C3)nc2s1` [Example 1-133, 6-[6-Propyl-4-(3-trifluoromethyl-5,6-dihydro-8H-[1,2,4]triazolo[4,3-a]pyrazin-7-yl)thieno[2,3-d]pyrimidin-2-yl]-2,3,4,6-tetrahydro-pyrido[3,4-b]pyrazine], with 0.145 µM; and `CCCc1cc2c(N3CCn4c(nnc4C(F)(F)F)C3)nc(OCCNCC(=O)OCC)nc2s1` [Example 3-54, {2-[6-Propyl-4-(3-trifluoromethyl-5,6-dihydro-8H-[1,2,4]triazolo[4,3-a]pyrazin-7-yl)-thieno[2,3-d]pyrimidin-2-yloxy]-ethylamino}-acetic acid ethyl ester], with 0.206 µM; and `CCCc1cc2c(N3CCn4c(nnc4C(F)(F)F)C3)nc(OCCN(CC(=O)OCC)C(=O)C3CC3)nc2s1` [Example 3-56, (Cyclopropanecarbonyl-{2-[6-propyl-4-(3-trifluoromethyl-5,6-dihydro-8H-[1,2,4]triazolo[4,3-a]pyrazin-7-yl)-thieno[2,3-c]pyrimidin-2-yloxy]-ethyl}-amino)-acetic acid ethyl ester], with 0.075 µM. In the case of `CCCc1cc2c(N3CCn4c(nnc4C(F)(F)F)C3)nc(OCCN(CC(=O)O)C(=O)C3CC3)nc2s1` [Example 3-57, (Cyclopropanecarbonyl-{2-[6-propyl-4-(3-trifluoromethyl-5,6-dihydro-8H-[1,2,4]triazolo[4,3-a]pyrazin-7-yl)-thieno[2,3-d]pyrimidin-2-yloxy]-ethyl}-amino)-acetic acid], the Ki came to 0.023 µM.

As for `CCCc1cc2c(N3CCn4c(nnc4C(F)(F)F)C3)nc(OCCNC(=O)C3CC3)nc2s1` [Example 3-59, Cyclopropanecarboxylic Acid {2-[6-propyl-4-(3-trifluoromethyl-5,6-dihydro-8H-[1,2,4]triazolo[4,3-a]pyrazin-7-yl)-thieno[2,3-d]pyrimidin-2-yloxy]-ethyl}-amide], affinity was put at a Ki of 0.0015 µM.

As usually defined, the Ki is the dissociation constant of the complex between target and ligand, obtained from inhibition or displacement. A low value points to a stronger hold on the target.
